According to patent publication US20230181612A1, “AMINOGLYCOSIDE DERIVATIVES AND USES THEREOF IN TREATING GENETIC DISORDERS” (ELOXX PHARMACEUTICALS LTD., priority 2017, published 2023):
“Also recorded” adds a separate entry of the source.

How the values were obtained:
eukaryotic ribosome = test: Eukaryotic in vitro translation inhibition (TNT T7 Quick Coupled Transcription/Translation System, luciferase); format: biochemical; conditions: for IC50: eukaryotic in vitro translation, 30 °C, 60 minutes
Description: The Set1 and Set2 compounds as described in Example 1 hereinabove were further tested for their ability to inhibit eukaryotic translation, as follows.
Eukaryotic in vitro translation inhibition was quantified using a TNT® T7 Quick Coupled
Transcription/Translation System with a luciferase T7 control DNA plasmid (Promega), according to the manufacturer protocol. Translation reactions (25 μL) containing variable concentrations of the tested aminoglycoside were incubated at 30° C. for 60 minutes, cooled on ice for 5 minutes, diluted with the dilution reagent and transferred into 96-well plates. In both prokaryotic and eukaryotic systems the luminescence was measured immediately after the addition of the Luciferase Assay Reagent ([…]; Promega), and the light emission was recorded with a FLx800 Fluorescence Microplate Reader (Biotek). The half-maximal inhibition concentration (IC50) values were obtained from fitting concentration-response curves to the data of at least two independent experiments by using Grafit 5 software.

[1] = tested on: G542X nonsense mutation (CFTR, premature UGA G stop codon); test: In vitro readthrough, dual luciferase reporter assay, G542X construct; format: biochemical; conditions: cystic fibrosis, in words, versus parent compound
Description: (§1) The Set1 and Set2 compounds as described in Example 1 hereinabove were tested for their readthrough activity in vitro by using a dual luciferase reporter assay system, as follows.
(§2) DNA fragments derived from PCDH15, CFTR, and IDUA cDNAs, including the tested nonsense mutation or the corresponding WT codon, and four to six upstream and downstream flanking codons, were created by annealing the following pairs of complementary oligonucleotides:
(§3) Fragments were inserted in frame into the polylinker of the p2Luc plasmid between either BamHI and Sad (p.R3X and p.R245X) or Salland Sad (all the rest) restriction sites. For the in vitro readthrough assays, the obtained plasmids, with addition of the tested aminoglycosides were transcribed and translated using the TNT Reticulocyte Lysate Quick Coupled Transcription/Translation System. Luciferase activity was determined after 90 minutes of incubation at 30° C., using the Dual Luciferase Reporter Assay System (Promega™). Stop codon readthrough was calculated as described in Grentzmann et al. RNA 4, 479-486 (1998).
(§4) Reporters carrying R3X nonsense mutation (a premature UGA C stop codon) related to Usher syndrome and G542X (a premature UGA G stop codon) related to Cystic fibrosis were used, and the obtained data is presented in FIGS. 7A-D.

human fibroblast cells = conditions: cited from earlier work
[2] = Toxicity assay in cochlear explants (organ of Corti); format: cell-based; conditions: CBA/J, mouse, cochlear explants (organ of Corti), outer hair cells, concentration at 50% loss of hair cells; 72 hours incubation; read-out: Ototoxicity (Loss of outer hair cells), LC50^Coch
Description: (§5) The ototoxicity potential of Set1 and Set2 compounds was tested with cochlear explants as described, for example, in E. Shulman et al., J. Biol. Chem. 289(4), 2318-2330 (2014). The ototoxicity was measured as the value of AG concentration that is needed for 50% of hair loss from the outer hair cells of the cochlea, as follows.
(§6) The tested compounds were screened for toxicity to auditory hair cells in explants of the organ of Corti from CBA/J mice of postnatal day 2-3. The dissected tissue was placed on a collagen-coated incubation dish as a flat surface preparation in 1 ml of serum-free Basal Medium Eagle (Sigma Aldrich, St. Louis, Mo.) plus serum-free supplement (Invitrogen, Eugene, Oreg.), 1% bovine serum albumin, 2 mM glutamine, 5 mg glucose /ml and 10 units penicillin/ml. The explants were incubated for 5 hours (37° C., 5% CO2) and an additional 1 ml of culture medium was added to submerse the explants. After 48 hours of continued pre-incubation the culture medium was exchanged for new medium containing a specified concentration of the tested compound. Following another 72 hours of incubation, the explants were washed three times with PBS, fixed overnight in 4% (v/v) paraformaldehyde at 4° C., and then permeabilized for 30 minutes with 0.3% (v/v) Triton X-100 in PBS. The specimens were washed three times with PBS for 10 minutes at room temperature and incubated with rhodamine phalloidin (1:100; Life Technologies, Eugene, OR), either for 1 hour at room temperature or overnight at 4° C.
(§7) Following several rinses with PBS, the explants were mounted on microscope slides with Fluoro-Gel (Electron Microscopy Sciences, Hatfield, Pa.) and imaged on a Leica SP5 Confocal TCS Microscope (Leica, Wetzlar, Germany). Hair cells were identified by phalloidin-staining of their stereociliary bundles and circumferential F-actin rings. Their presence or absence was quantified using a 50x oil immersion objective on an epifluorescence Leitz Orthoplan microscope (Leica, Wetzlar, Germany), equipped with a calibrated scale (0.19 mm) superimposed on the field of view. All rows of hair cells were oriented longitudinally within each frame and counted from the apex of the cochlea to its base. Cell counts were entered in a computer program and compared to a normative database (KHRI Cytocochleogram, version 3.0.6, Kresge Hearing Research Institute, University of Michigan, Ann Arbor, Mich., USA) and are reported as percent hair cell loss averaged over the entire length of the explant.

outer hair cells = test: as above; format: cell-based; conditions: for morphology of hair cell epithelium: F-actin staining; for ototoxicity potential, in words: LC50^Coch in the millimolar range
Description: as §5, §6, §7

[3] = tested on: R3X nonsense mutation (PCDH15, premature UGA C stop codon); test: In vitro readthrough, dual luciferase reporter assay, R3X construct; format: biochemical
Description: as §1, §2, §3, §4

[4] = tested on: CFTR S466X nonsense mutation; test: Readthrough activity in cell-free dual luciferase assay, CFTR S466X; format: biochemical, rabbit
Source text: (§8) A dual luciferase plasmid carrying the Cystic fibrosis transmembrane conductance regulator (CFTR) mutation, S466X, or wild-type sequence, between Renilla and Firefly luciferase was transcribed and translated in vitro using rabbit reticulocytes (TNT mix) and then tested for functional activity of firefly and renilla luciferases. WT plasmids expressed both firefly and renilla luciferases while mutant plasmids expressed only the renilla luciferase due to the stop codon found in the inserted sequence. The readthrough assays were conducted for the tested compounds and controls by adding the compounds to the in vitro transcription/translation reaction mixture.
Read-through activity induced by NB74-MeS and NB124-MeS was calculated from the dual luciferase assay data using results from both the WT and mutant plasmids and the following equation: […]
(iii) Readthrough efficiency is presented as fold-increase in Firefly luciferase activity between NB74-MeS and NB124-MeS treated and non-treated mutant plasmid.
(iv) % readthrough of WT is calculated as the percentage of FF/Renilla of the mutant plasmid divided by the FF/Renilla of the WT plasmid.

ribosomes = test: Translational inhibition (TI) in cell-free dual luciferase assay, Renilla of WT plasmid; format: biochemical, rabbit
Source text: as §8
(i) Translational Inhibition (TI; The extent of the translational inhibition of ribosomes by NB74-MeS and NB124-MeS was calculated using the reduction in the Renilla bioluminescence values of WT plasmid by nonlinear regression curve fit on a plot of Relative Light Units (RLU) versus the log NB74-MeS and NB124-MeS molar concentration (Find ECanything analysis, GraphPad PRISM, version 7).

Structure (SMILES): C[C@@H](O)C1O[C@H](O[C@@H]2C(N)C[C@@H](NC(=O)c3ccccc3)C(O)C2O[C@@H]2O[C@H](CN)C(O)C2O)C(N)C(O)[C@@H]1O (stereo partly drawn) [NB74-Bz, 6′-(R)-Methyl-5-O-(5″-amino-5″-deoxy-β-D-ribofuranose)-2′,3-amino-1-N-benzamide paromamine]
- IC50 (eukaryotic ribosome): 755 µM
- folds less specific to the eukaryotic ribosome than NB74 (eukaryotic ribosome; from IC50 values): 54 folds

Structure (SMILES): C[C@H](N)[C@H]1O[C@@H](OC2C(O)[C@H](NS(C)(=O)=O)CC(N)[C@H]2O[C@H]2OC([C@@H](C)O)[C@@H](O)C(O)C2N)C(O)C1O (some centres unmarked) [NB124-MeS]
- readthrough activity, G542X mutation [1]: better activity

Structure (SMILES): CNC1C(O)C(OC2C(N)CC(N)C(OC3OC(C(C)O)C(O)C(O)C3N)C2O)OCC1(C)O (centres unmarked) [Compound G-418]
- LD50 (human fibroblast cells): 0.04 mg/mL

Structure (SMILES): C[C@@H](O)C1O[C@H](O[C@@H]2C(N)C[C@@H](NS(=O)(=O)c3ccccc3)C(O)C2O[C@@H]2O[C@H](CN)C(O)C2O)C(N)C(O)[C@@H]1O (stereo partly drawn) [NB74-PhS, 6′-(R)-Methyl-5-O-(5″-amino-5″-deoxy-II-D-ribofuranose)-2′,3-amino-1-N-phenylsulfonamide paromamine]
- IC50 (eukaryotic ribosome): 160 ± 3.6 µM
- CC50 at 72 h [2]: 176 µM

Structure (SMILES): CC(=O)N[C@@H]1CC(N)[C@@H](O[C@H]2OC([C@@H](C)O)[C@@H](O)C(O)C2N)C(O[C@@H]2O[C@H]([C@H](C)N)C(O)C2O)C1O (stereo partly drawn) [NB124-Ac, 6′-(R)-Methyl-5-O-(5-(R)-amino-5-deoxy-β-D-ribofuranose)-2′,3-amino-1-N-acetamide paromamine]
- CC50 at 72 h [2]: 1600 µM
- morphology of hair cell epithelium (outer hair cells; 150 μM, 72 hours): remained normal and indistinguishable from the control; also recorded: essentially normal morphology
- ototoxicity potential, in words (outer hair cells): incredibly low ototoxicity potential

Structure (SMILES): C[C@H](N)[C@H]1O[C@@H](O[C@@H]2C(O)[C@H](N)CC(N)[C@H]2O[C@H]2OC([C@@H](C)O)[C@@H](O)[C@H](O)C2N)C(O)[C@H]1O (some centres unmarked) [NB124, reference compound]
- CC50 at 72 h [2]: 11.1 µM
- morphology of hair cell epithelium (outer hair cells; 15 μM, 72 hours): almost complete
- hair cell loss / damage (outer hair cells; 15 μM, 72 hours, basal part of the cochlea): 80-90%

Structure (SMILES): CC(=O)N[C@@H]1CC(N)[C@@H](O[C@H]2OC([C@@H](C)O)[C@@H](O)C(O)C2N)C(O[C@@H]2O[C@H](CN)C(O)C2O)C1O (stereo partly drawn) [NB74-Ac, 6′-(R)-Methyl-5-O-(5″-amino-5″-deoxy-β-D-ribofuranose)-2′,3-amino-1-N-acetamide paromamine]
- IC50 (eukaryotic ribosome): 92.3 ± 9.9 µM
- CC50 at 72 h [2]: 2400 µM
- ototoxicity potential, in words (outer hair cells): incredibly low ototoxicity potential
- CC50 (outer hair cells; concentration at 50% loss of hair cells, 72 hours incubation, read-out: Ototoxicity (Loss of outer hair cells), LC50^Coch): 2040 µM
- ototoxicity relative to parent compound (outer hair cells; from LC50^Coch values): decreased in three orders of magnitude

Structure (SMILES): C[C@@H](O)C1O[C@H](O[C@@H]2C(N)C[C@@H](NS(C)(=O)=O)C(O)C2O[C@@H]2O[C@H](CN)C(O)C2O)C(N)C(O)[C@@H]1O (stereo partly drawn) [NB74-MeS, 6′-(R)-Methyl-5-O-(5″-amino-5″-deoxy-11-D-ribofuranose)-2′,3-amino-1-N-methanesulfonamide paromamine]
- folds better readthrough activity in comparison to NB74 [3]: about 1.5 folds
- readthrough activity, G542X mutation [1]: better activity
- IC50 (eukaryotic ribosome): 8.35 µM
- folds more specific to the eukaryotic ribosome than NB74 (eukaryotic ribosome; from IC50 values): 1.7 folds
- Fold Read-through at TI80 ([4]; S466X, relative to MUT control, 0-16 μM range): 9.9 Fold
- % Read-through at TI80 ([4]; S466X, relative to WT): 17%
- suppression of cystic fibrosis S466X nonsense mutation, in words ([4]; cell-free assay, data not shown): dose-response suppression
- TI80 (ribosomes): 16 µM
- IC50 (ribosomes; read-out: TI50 (the source's name)): > 16 µM
- CC50 at 72 h [2]: 61.8 µM

Structure (SMILES): C[C@@H](O)C1O[C@H](O[C@@H]2C(N)C[C@@H](N)C(O)[C@H]2O[C@@H]2O[C@H](CN)[C@H](O)C2O)C(N)[C@@H](O)[C@@H]1O (some centres unmarked) [NB74, reference compound]
- IC50 (eukaryotic ribosome): 14.3 µM
- CC50 at 72 h [2]: 112 µM
